SMILES strings stand for the structures.

Among the data in paper PMC7601397, “Discovery of Sulforaphane as a Potent BACE1 Inhibitor Based on Kinetics and Computational Studies” (Nutrients, 2020) are Ki values, retold here.

This experiment deals with BACE1 (Homo sapiens, UniProt P56817). The experiment in a line: FRET enzyme assay (kit); Dixon and Lineweaver-Burk kinetics. The class given is biochemical.
Sequence of BACE1 (P56817 46-457): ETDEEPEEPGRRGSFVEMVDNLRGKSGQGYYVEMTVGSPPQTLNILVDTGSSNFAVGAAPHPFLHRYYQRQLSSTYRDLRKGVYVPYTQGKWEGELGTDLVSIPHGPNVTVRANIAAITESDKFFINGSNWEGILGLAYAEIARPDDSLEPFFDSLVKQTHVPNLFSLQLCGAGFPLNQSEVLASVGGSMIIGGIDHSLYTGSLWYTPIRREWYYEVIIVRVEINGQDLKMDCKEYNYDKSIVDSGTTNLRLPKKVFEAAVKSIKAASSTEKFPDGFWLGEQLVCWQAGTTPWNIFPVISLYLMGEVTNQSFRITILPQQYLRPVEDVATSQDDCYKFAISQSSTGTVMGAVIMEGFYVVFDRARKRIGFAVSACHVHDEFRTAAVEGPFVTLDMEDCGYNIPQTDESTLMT

Regarding `C[S+]([O-])CCCCN=C=S` (stereo not shown) [Sulforaphane], the affinity corresponds to a Ki of 3.1 µM. That is a single-digit micromolar value.

The term Ki denotes the dissociation constant of the complex between target and ligand, obtained from inhibition or displacement. Low values mean tighter binding, high ones weaker binding.
